Among the test systems are UACC-62 melanoma; SF-539 CNS; NCI-H226 lung; HCC-2998 colon; M14 melanoma; OVCAR-4 ovarian; SNB-75 CNS; RPMI-8226 leukemia; MDA-MB-231 breast; BT-549 breast.
Test in all cases: NCI anticancer screen, dose series, 48 h

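Step 1: Grow cells in 96-well plates. Step 2: Expose to compound for 48 hours at 5 concentrations. Step 3: Interpolate endpoints linearly; if unreached, use highest concentration. GI50 is the concentration that inhibits growth by half. The concentration for full growth arrest is given as TGI.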 Bounds are passed on as bounds.

In the case of `Cc1ccc(C(=O)/C=C/c2ccccc2O)c(C)c1`, the TGI in the assay with UACC-62 melanoma, in the assay with SF-539 CNS, in the assay with NCI-H226 lung, with HCC-2998 colon, with M14 melanoma and with OVCAR-4 ovarian was greater than 100 µM in each case. The results for the TGI with SNB-75 CNS and in the assay on RPMI-8226 leukemia were 8.01 µM and greater than 100 µM, respectively.

Take `COC(=O)CSc1n[nH]c(-c2ccc(O)c([N+](=O)[O-])c2)n1`: the TGI in the assay on UACC-62 melanoma, in the assay on SF-539 CNS, in the assay on NCI-H226 lung, in the assay with HCC-2998 colon, in the assay with M14 melanoma and in the assay on OVCAR-4 ovarian was greater than 100 µM throughout. In addition, the TGI in the assay with SNB-75 CNS and with RPMI-8226 leukemia was greater than 100 µM in each case.

For the compound `Cc1cc(NS(=O)(=O)c2ccc(NC(=O)c3cccc4c(=O)c5ccccc5[nH]c34)cc2)no1`, the TGI was 66.8 µM in the assay with UACC-62 melanoma; greater than 100 µM in the assay on SF-539 CNS; greater than 100 µM with NCI-H226 lung; greater than 100 µM with HCC-2998 colon; greater than 100 µM in the assay with OVCAR-4 ovarian; 85.4 µM with SNB-75 CNS. The compound further gave a TGI with RPMI-8226 leukemia greater than 100 µM.

Take `CSc1ccc(/C=C2/C[N+](C)(C)C/C(=C/c3ccc(SC)cc3)C2=O)cc1`: the TGI in the assay on SF-539 CNS stood at 34 µM; in the assay with NCI-H226 lung, 72.5 µM; with HCC-2998 colon, 34 µM; in the assay with M14 melanoma, 28.8 µM; in the assay on SNB-75 CNS, 62.4 µM; in the assay on RPMI-8226 leukemia, 9.92 µM.

For `CCc1cccc(C)c1NC(C)=O`, the TGI in the assay with UACC-62 melanoma, with SF-539 CNS, in the assay on NCI-H226 lung, with HCC-2998 colon, with M14 melanoma and in the assay with OVCAR-4 ovarian was greater than 100 µM throughout. The TGI in the assay with SNB-75 CNS and in the assay on RPMI-8226 leukemia was greater than 100 µM in each case.

With `COc1ccc(OC)c(/C=C/NC=O)c1`, the TGI in the assay with UACC-62 melanoma, in the assay with SF-539 CNS, in the assay with NCI-H226 lung, in the assay with HCC-2998 colon, in the assay on M14 melanoma and with OVCAR-4 ovarian was greater than 100 µM in each case. The TGI in the assay on SNB-75 CNS and with RPMI-8226 leukemia was greater than 100 µM in each case.

For `CCN(CC)C(=O)C/C(C)=N/NC(=O)c1ccncc1`, the TGI with UACC-62 melanoma, with SF-539 CNS, in the assay with NCI-H226 lung, with HCC-2998 colon, with M14 melanoma and in the assay with SNB-75 CNS was greater than 100 µM in each case. In the assay on RPMI-8226 leukemia, this compound registered a TGI greater than 100 µM.

On to `Cc1ccc(N=NC(C(=O)c2ccccc2)C(=O)c2ccccc2)cc1`, for which the TGI in the assay with UACC-62 melanoma was 60.8 µM; in the assay on SF-539 CNS, 97.3 µM; with NCI-H226 lung it was 40.6 µM; in the assay on HCC-2998 colon, greater than 100 µM; with M14 melanoma it was 34.5 µM; with OVCAR-4 ovarian, 61.6 µM. The TGI is 93.4 µM in the assay on SNB-75 CNS and 67.4 µM in the assay with RPMI-8226 leukemia.

Consider `COC(=O)C(=O)C(C(=O)C=C(C)C)C(=O)C(=O)Nc1ccc(Cl)cc1C` (stereo unspecified), for which the TGI in the assay on UACC-62 melanoma, in the assay with SF-539 CNS, with NCI-H226 lung, with HCC-2998 colon, in the assay with M14 melanoma and in the assay with OVCAR-4 ovarian was greater than 100 µM each time. Further, the TGI in the assay on SNB-75 CNS and with RPMI-8226 leukemia was greater than 100 µM in each case.

Take `N#CCCN(CCC#N)c1ccc(/C=C2\N=C(CN3C(=O)c4ccccc4C3=O)OC2=O)cc1`: the TGI with UACC-62 melanoma, with SF-539 CNS, in the assay with NCI-H226 lung, with HCC-2998 colon, in the assay on M14 melanoma and in the assay on OVCAR-4 ovarian was greater than 100 µM each time. In addition, the TGI in the assay on SNB-75 CNS and in the assay on RPMI-8226 leukemia was greater than 100 µM in each case.

`COc1cc(Cn2c(-c3ccccc3)cc3c2-c2oncc2CC3)cc(OC)c1OC`: the GI50 with UACC-62 melanoma is 0.449 µM; with SF-539 CNS, 0.735 µM; in the assay with NCI-H226 lung, 3.76 µM; with MDA-MB-231 breast, 2.82 µM; in the assay on HCC-2998 colon, 2.21 µM; in the assay with M14 melanoma, 0.468 µM. Also, the values for the GI50 with OVCAR-4 ovarian, in the assay on SNB-75 CNS and in the assay on RPMI-8226 leukemia were 3.12 µM, 0.453 µM and 5.43 µM, respectively. For the same compound, the TGI in the assay with UACC-62 melanoma was 77.5 µM; with SF-539 CNS, 10.3 µM; with NCI-H226 lung, greater than 100 µM; in the assay on MDA-MB-231 breast, greater than 100 µM; in the assay with HCC-2998 colon it was greater than 100 µM; in the assay on M14 melanoma, 13.4 µM. Further, the values for the TGI in the assay on OVCAR-4 ovarian, with SNB-75 CNS and in the assay on RPMI-8226 leukemia were greater than 100 µM, 3.99 µM and greater than 100 µM, respectively.

In the case of `O=[N+]([O-])c1ccc2nnnn2c1`, the TGI is greater than 100 µM in the assay on UACC-62 melanoma; 65.7 µM with SF-539 CNS; 47.3 µM in the assay on NCI-H226 lung; 96.4 µM with MDA-MB-231 breast; greater than 100 µM in the assay with M14 melanoma; greater than 100 µM with BT-549 breast. Further, the TGI with OVCAR-4 ovarian and in the assay with SNB-75 CNS was greater than 100 µM in each case.

As to `CC(C)=CC(=O)N1CCN(C(=O)C=C(C)C)CC1`, the TGI in the assay with UACC-62 melanoma, in the assay on SF-539 CNS, in the assay with HCC-2998 colon, with M14 melanoma, in the assay on OVCAR-4 ovarian and in the assay on SNB-75 CNS was greater than 100 µM in each case. This compound also yielded a TGI in the assay with RPMI-8226 leukemia greater than 100 µM.

For `CN(C)C(=S)/N=c1\ss/c(=N\C(=S)N(C)C)n1-c1ccc2c(c1)OCO2`, the TGI in the assay with UACC-62 melanoma, in the assay on SF-539 CNS, in the assay on NCI-H226 lung, in the assay on HCC-2998 colon, in the assay with M14 melanoma and with OVCAR-4 ovarian was greater than 100 µM each time. The compound further returned a TGI with SNB-75 CNS greater than 100 µM.

With `CC(=O)SCCC1c2[nH]c3ccccc3c2CCN1O` (stereo unspecified), the TGI with UACC-62 melanoma was greater than 100 µM; with SF-539 CNS, greater than 100 µM; in the assay on HCC-2998 colon, greater than 100 µM; with M14 melanoma, greater than 100 µM; with OVCAR-4 ovarian, greater than 100 µM; in the assay with SNB-75 CNS, 86.4 µM. Moreover, in the assay on RPMI-8226 leukemia, the TGI was greater than 100 µM.

As to `COC(=O)C1=C(c2ccc3c(c2)OCO3)O[C@H](c2ccc3c(c2)OCO3)[C@H]1COC(C)=O`, the TGI in the assay on UACC-62 melanoma, in the assay with SF-539 CNS, with NCI-H226 lung, with HCC-2998 colon, with M14 melanoma and in the assay on OVCAR-4 ovarian was greater than 100 µM in each case. The TGI in the assay on SNB-75 CNS and in the assay with RPMI-8226 leukemia was greater than 100 µM each time.
